{
  "source": "patent US20060058275A1",
  "about": "“Processes for preparing stabilized, highly pure rocuronium bromide” (priority 2004, published 2006)",
  "type_in_all_cases": "physicochemical",
  "key": {"[1]": {"test": "nature of product freeze dried from unbuffered degassed water (Example 5)", "conditions": "Example 5: dissolved in degassed water and freeze dried, no buffer", "method": "Rocuronium bromide (2 grams) prepared according to example 1 and dried in a manner similar to entries 1 and 2 in table 2 (see example 4), was dissolved in degassed water (30 ml) and freeze dried."}, "[2]": {"test": "decomposition of rocuronium bromide in water at room temperature", "conditions": "aqueous solution, in 24 hours", "description": "While freeze drying of the aqueous solution did reduce the isobutyl acetate level to an acceptable level of 0.26%, the impurity levels rose to 0.33%. […] This inherent instability in aqueous solution may explain thc observed rise in the impurities level in our hands."}, "[3]": {"test": "hygroscopicity test at relative humidity of about 45%", "conditions": "within 24 hours, sample containing 3.1% acetic acid (stabilized solid of the invention)", "method": "In another aspect, the present invention relates to an improved process for preparing a stable solid comprising substantially pure rocuronium bromide, which is substantially non-hygroscopic, because when subjected to hygroscopisity test at relative humidity of about 45%, a sample containing 3.1% acetic acid absorbed only about 2% water within 24 hours."}},
  "data": [
    {"smiles": "C=CC[N+]1(C2CC3C4CC[C@H]5C[C@H](O)C(N6CCOCC6)C[C@]5(C)C4CC[C@]3(C)[C@H]2OC(C)=O)CCCC1.[Br-]", "note": "(stereo partly drawn) [rocuronium bromide, 1-[(2β,3α,5α,16β,17β)-17-acetoxy-3-hydroxy-2-(4-morpholinyl)-androstan-16-yl-]-1-(2-propenyl)pyrrolidinium bromide]", "values": [
      {"measurement": "hygroscopicity of product", "setting": "[1]", "value": "highly hygroscopic"},
      {"measurement": "decomposition rate in water", "setting": "[2]", "value": "0.25-0.5%"},
      {"measurement": "water absorbed", "setting": "[3]", "value": "about 2%"}
    ]}
  ]
}
